Consider 22 molecules from US8008291B2 (Mimetica Pty Ltd, priority 2008, dated 2011).

Each structure is given as a SMILES string.

T1 sequence (P33032 whole entry): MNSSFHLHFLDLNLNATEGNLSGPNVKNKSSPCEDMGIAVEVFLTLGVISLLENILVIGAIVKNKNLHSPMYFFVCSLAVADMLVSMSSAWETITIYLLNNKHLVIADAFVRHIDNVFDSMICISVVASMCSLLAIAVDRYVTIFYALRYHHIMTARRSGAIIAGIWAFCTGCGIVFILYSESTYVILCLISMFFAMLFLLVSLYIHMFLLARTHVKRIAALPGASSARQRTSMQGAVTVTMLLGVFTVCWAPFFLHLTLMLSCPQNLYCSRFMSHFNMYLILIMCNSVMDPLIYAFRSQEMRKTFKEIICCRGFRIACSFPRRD

This assay concerns the target T1, human MC5R (hMC5R) (Homo sapiens, UniProt P33032).
T1 construct: purchased Perkin Elmer RBXMC5M400UA
The assay is described as follows: Human MC5R radioligand binding assay (membranes, [125I] NDP-MSH displacement). The settings on record: hMC5R binding; tested as trifluoroacetate or hydrochloride salts, or free bases; read-out: MC5R radioligand IC50. The method, boiled down:
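Frozen human MC5R membranes incubated with test compound and in-house iodogen-labeled, HPLC-purified [125I]NDP-MSH for 1 hr at 37° C. Binding measured as displacement of the radioligand.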
Consider `N=C(N)NCCC[C@@H]1N[C@H](CNC(=O)c2ccc(-c3ccccc3)cc2)CCN(CC2CCCCC2)C1=O` [Compound 480, N-(((3S,5S)-1-(cyclohexylmethyl)-3-(3-guanidinopropyl)-2-oxo-1,4-diazepan-5-yl)methyl)biphenyl-4-carboxamide], for which the IC50 was < 1 µM. The same measure for `C[C@H](CN1CC[C@@H](CNC(=O)c2ccc3ccccc3c2)N[C@@H](CCN2CCCCC2)C1=O)c1ccc(Cl)cc1` [Compound 424, N-(((3S,5S)-1-((S)-2-(4-chlorophenyl)propyl)-2-oxo-3-(2-(piperidin-1-yl)ethyl)-1,4-diazepan-5-yl)methyl)-2-naphthamide]: < 1 µM. The same measure for `N=C(N)NCCC[C@@H]1N[C@H](CNC(=O)c2ccc3ccccc3c2)CCN(CCC2CC3CCC2C3)C1=O` (stereo partly drawn) [Compound 243, N-(((3S,5S)-1-(2-(bicyclo[2.2.1]heptan-2-yl)ethyl)-3-(3-guanidinopropyl)-2-oxo-1,4-diazepan-5-yl)methyl)-2-naphthamide]: < 1 µM; for `CC[C@H](CN1CCC(CNC(=O)c2ccc3cc(Cl)ccc3c2)NC(C2CCN(CCC(C)C)CC2)C1=O)c1ccccc1` (stereo partly shown) [Compound 448]: < 0.1 µM. The same measure for `O=C(NC[C@@H]1CCN(CC(c2ccccc2)c2ccccc2)C(=O)[C@H](CCN2CCCCC2)N1)c1ccc2cc(Cl)ccc2c1` [Compound 378, 6-chloro-N-(((3S,5S)-1-(2,2-diphenylethyl)-2-oxo-3-(2-(piperidin-1-yl)ethyl)-1,4-diazepan-5-yl)methyl)-2-naphthamide]: < 0.01 µM; for `NCCC[C@@H]1N[C@H](CNC(=O)c2ccc3ccccc3c2)CCN(Cc2cc(F)cc(C(F)(F)F)c2)C1=O` [Compound 322, N-(((3S,5S)-3-(3-aminopropyl)-1-(3-fluoro-5-(trifluoromethyl)benzyl)-2-oxo-1,4-diazepan-5-yl)methyl)-2-naphthamide]: < 10 µM; for `CC[C@H](CN1CC[C@@H](CNC(=O)c2ccc3cc(OC)ccc3c2)N[C@@H](CCN2CCCCC2)C1=O)c1ccccc1` [Compound 537, 6-methoxy-N-(((3S,5S)-2-oxo-1-((S)-2-phenylbutyl)-3-(2-(piperidin-1-yl)ethyl)-1,4-diazepan-5-yl)methyl)-2-naphthamide]: < 0.1 µM. Consider `NCC[C@@H]1N[C@H](CNC(=O)c2ccc3ccccc3c2)CCN(CC(c2ccccc2)c2ccccc2)C1=O` [Compound 260, N-(((3S,5S)-3-(2-aminoethyl)-1-(2,2-diphenylethyl)-2-oxo-1,4-diazepan-5-yl)methyl)-2-naphthamide], for which the IC50 is < 1 µM. On to `CCC(CC)CN1CC[C@@H](CNC(=O)c2ccc3cc(Br)ccc3c2)N[C@@H](CCN2CCCCC2)C1=O` [Compound 374, 6-bromo-N-(((3S,5S)-1-(2-ethylbutyl)-2-oxo-3-(2-(piperidin-1-yl)ethyl)-1,4-diazepan-5-yl)methyl)-2-naphthamide], for which the IC50 is < 0.1 µM.

For the molecule `CC(C)[C@H](N)C(=O)NCC[C@@H]1N[C@H](CNC(=O)c2ccc(Cl)c(Cl)c2)CCN(Cc2ccc(Cl)cc2Cl)C1=O` [Compound 506, N-(((3S,5S)-3-(2-((S)-2-amino-3-methylbutanamido)ethyl)-1-(2,4-dichlorobenzyl)-2-oxo-1,4-diazepan-5-yl)methyl)-3,4-dichlorobenzamide], the IC50 is < 10 µM.

For the molecule `CCC(C)(CC)CN1CC[C@@H](CNC(=O)c2ccc(Cl)c(Cl)c2)N[C@@H](CCN)C1=O` [Compound 520, N-(((3S,5S)-3-(2-aminoethyl)-1-(2-ethyl-2-methylbutyl)-2-oxo-1,4-diazepan-5-yl)methyl)-3,4-dichlorobenzamide], the IC50 was < 10 µM.

Consider `NCC[C@@H]1N[C@H](CNC(=O)c2ccc3cc(Cl)ccc3c2)CCN(Cc2cc(Cl)cc(Cl)c2)C1=O` [Compound 466, N-(((3S,5S)-3-(2-aminoethyl)-1-(3,5-dichlorobenzyl)-2-oxo-1,4-diazepan-5-yl)methyl)-6-chloro-2-naphthamide], for which the IC50 was < 0.1 µM. Turning to `NCCC[C@@H]1N[C@H](CNC(=O)c2ccc3ccccc3c2)CCN(Cc2ccc(Cl)cc2Cl)C1=O` [Compound 319, N-(((3S,5S)-3-(3-aminopropyl)-1-(2,4-dichlorobenzyl)-2-oxo-1,4-diazepan-5-yl)methyl)-2-naphthamide], the concentration for half-maximal inhibition (IC50) was < 1 µM.

With `N=C(N)NCCC[C@@H]1N[C@H](CNC(=O)c2ccc3ccccc3c2)CCN(CC2c3ccccc3-c3ccccc32)C1=O` [Compound 227, N-(((3S,5S)-1-((9H-fluoren-9-yl)methyl)-3-(3-guanidinopropyl)-2-oxo-1,4-diazepan-5-yl)methyl)-2-naphthamide], the IC50 is < 10 µM. The same measure for `N=C(N)NCCC[C@@H]1N[C@H](CNC(=O)c2ccc3ccccc3c2)CCN(C[C@@H](NC(=O)C2CCCCC2)c2ccccc2)C1=O` [Compound 270, N-(((3S,5S)-1-((S)-2-(cyclohexanecarboxamido)-2-phenylethyl)-3-(3-guanidinopropyl)-2-oxo-1,4-diazepan-5-yl)methyl)-2-naphthamide]: < 10 µM; for `Cc1cc(F)cc(CN2CC[C@@H](CNC(=O)c3ccc4ccccc4c3)N[C@@H](CCCN)C2=O)c1` [Compound 321, N-(((3S,5S)-3-(3-aminopropyl)-1-(3-fluoro-5-methylbenzyl)-2-oxo-1,4-diazepan-5-yl)methyl)-2-naphthamide]: < 10 µM. As for `NCC[C@@H]1N[C@H](CCNC(=O)c2ccc3ccccc3c2)CCN(CC(c2ccccc2)c2ccccc2)C1=O` [Compound 303, N-(2-((3S,5R)-1-(2,2-diphenylethyl)-2-oxo-3-(2-aminoethyl)-1,4-diazepan-5-yl)ethyl)-2-naphthamide], the IC50 was < 1 µM. The value for `CC(C)NCC[C@@H]1N[C@H](CNC(=O)c2ccc(Cl)c(Cl)c2)CCN(CC(c2ccccc2)c2ccccc2)C1=O` [Compound 383, 3,4-dichloro-N-(((3S,5S)-1-(2,2-diphenylethyl)-3-(2-(isopropylamino)ethyl)-2-oxo-1,4-diazepan-5-yl)methyl)benzamide] was < 1 µM; that for `CCCCCN(C)CC[C@@H]1N[C@H](CNC(=O)c2ccc(Cl)c(Cl)c2)CCN(C[C@@H](CC)c2ccccc2)C1=O` [Compound 444, 3,4-dichloro-N-(((3S,5S)-3-(2-(methyl(pentyl)amino)ethyl)-2-oxo-1-((S)-2-phenylbutyl)-1,4-diazepan-5-yl)methyl)benzamide] was < 0.1 µM; that for `CC(C)c1ccc(/C=C/C(=O)NC[C@@H]2CCN(CC(c3ccccc3)c3ccccc3)C(=O)[C@H](CCN)N2)cc1` [Compound 397, (E)-N-(((3S,5S)-3-(2-aminoethyl)-1-(2,2-diphenylethyl)-2-oxo-1,4-diazepan-5-yl)methyl)-3-(4-isopropylphenyl)acrylamide] was < 1 µM. The same measure for `CCC(CN1CC[C@@H](CNC(=O)c2ccc3ccccc3c2)N[C@@H](CCCN)C1=O)c1ccccc1` (stereo partly drawn) [Compound 324, N-(((3S,5S)-3-(3-aminopropyl)-2-oxo-1-(2-phenylbutyl)-1,4-diazepan-5-yl)methyl)-2-naphthamide]: < 1 µM; for `CC[C@H](CN1CC[C@@H](CNC(=O)c2ccc3cc(Cl)ccc3c2)N[C@@H](CCNS(=O)(=O)C(C)C)C1=O)c1ccccc1` [Compound 523, 6-chloro-N-(((3S,5S)-3-(2-(1-methylethylsulfonamido)ethyl)-2-oxo-1-((S)-2-phenylbutyl)-1,4-diazepan-5-yl)methyl)-2-naphthamide]: < 0.1 µM.
